Laboratory results published in ChEMBL document CHEMBL5696442, “Discovery of type II inhibitors of TGFβ-activated kinase 1 (TAK1) and mitogen-activated protein kinase kinase kinase kinase 2 (MAP4K2)” (J Med Chem, 2015).

What was measured:
[1] = biological target: T1, Serine/threonine-protein kinase Chk1 (Homo sapiens) (UniProt O14757); test: Inhibition of CHK1 Lys2 labeling site in human Huh-7 cells at 1 uM by KiNativ Profiling analysis relative to control; format: cell-based
T1 sequence (whole entry): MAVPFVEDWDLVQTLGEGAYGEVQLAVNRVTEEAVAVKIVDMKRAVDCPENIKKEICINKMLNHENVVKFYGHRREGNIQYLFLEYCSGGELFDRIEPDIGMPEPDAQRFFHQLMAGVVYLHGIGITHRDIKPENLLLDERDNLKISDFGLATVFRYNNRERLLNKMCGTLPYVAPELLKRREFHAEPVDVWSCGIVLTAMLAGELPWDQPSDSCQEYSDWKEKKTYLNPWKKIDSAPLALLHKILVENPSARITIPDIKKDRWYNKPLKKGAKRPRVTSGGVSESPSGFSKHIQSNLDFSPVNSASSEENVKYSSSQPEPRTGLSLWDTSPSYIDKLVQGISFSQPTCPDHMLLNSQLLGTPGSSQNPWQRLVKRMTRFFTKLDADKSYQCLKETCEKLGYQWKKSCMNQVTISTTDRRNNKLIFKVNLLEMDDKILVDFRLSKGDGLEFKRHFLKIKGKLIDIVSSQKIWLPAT

[2] = biological target: Tyrosine-protein kinase JAK1 (Homo sapiens) (UniProt P23458); test: Inhibition of JAK1 Domain 2 ACT labeling site harbouring IGDFGLTKAIETDKEYYTVK in human Huh-7 cells at 1 uM by KiNativ Profiling analysis relative to control; format: cell-based
[3] = biological target: Serine/threonine-protein kinase 10 (Homo sapiens) (UniProt O94804); test: Inhibition of LOK Lys1 labeling site harbouring NKETGALAAAKVIETK in human A-375 cells at 5 uM by KiNativ Profiling analysis relative to control; format: cell-based
[4] = biological target: Serine/threonine-protein kinase ATR (Homo sapiens) (UniProt Q13535); test: Inhibition of ATR ATP labeling site in human A-375 cells at 5 uM by KiNativ Profiling analysis relative to control; format: cell-based
Serine/threonine-protein kinase ATR (Homo sapiens), sequence (Q13535 whole entry, looked up): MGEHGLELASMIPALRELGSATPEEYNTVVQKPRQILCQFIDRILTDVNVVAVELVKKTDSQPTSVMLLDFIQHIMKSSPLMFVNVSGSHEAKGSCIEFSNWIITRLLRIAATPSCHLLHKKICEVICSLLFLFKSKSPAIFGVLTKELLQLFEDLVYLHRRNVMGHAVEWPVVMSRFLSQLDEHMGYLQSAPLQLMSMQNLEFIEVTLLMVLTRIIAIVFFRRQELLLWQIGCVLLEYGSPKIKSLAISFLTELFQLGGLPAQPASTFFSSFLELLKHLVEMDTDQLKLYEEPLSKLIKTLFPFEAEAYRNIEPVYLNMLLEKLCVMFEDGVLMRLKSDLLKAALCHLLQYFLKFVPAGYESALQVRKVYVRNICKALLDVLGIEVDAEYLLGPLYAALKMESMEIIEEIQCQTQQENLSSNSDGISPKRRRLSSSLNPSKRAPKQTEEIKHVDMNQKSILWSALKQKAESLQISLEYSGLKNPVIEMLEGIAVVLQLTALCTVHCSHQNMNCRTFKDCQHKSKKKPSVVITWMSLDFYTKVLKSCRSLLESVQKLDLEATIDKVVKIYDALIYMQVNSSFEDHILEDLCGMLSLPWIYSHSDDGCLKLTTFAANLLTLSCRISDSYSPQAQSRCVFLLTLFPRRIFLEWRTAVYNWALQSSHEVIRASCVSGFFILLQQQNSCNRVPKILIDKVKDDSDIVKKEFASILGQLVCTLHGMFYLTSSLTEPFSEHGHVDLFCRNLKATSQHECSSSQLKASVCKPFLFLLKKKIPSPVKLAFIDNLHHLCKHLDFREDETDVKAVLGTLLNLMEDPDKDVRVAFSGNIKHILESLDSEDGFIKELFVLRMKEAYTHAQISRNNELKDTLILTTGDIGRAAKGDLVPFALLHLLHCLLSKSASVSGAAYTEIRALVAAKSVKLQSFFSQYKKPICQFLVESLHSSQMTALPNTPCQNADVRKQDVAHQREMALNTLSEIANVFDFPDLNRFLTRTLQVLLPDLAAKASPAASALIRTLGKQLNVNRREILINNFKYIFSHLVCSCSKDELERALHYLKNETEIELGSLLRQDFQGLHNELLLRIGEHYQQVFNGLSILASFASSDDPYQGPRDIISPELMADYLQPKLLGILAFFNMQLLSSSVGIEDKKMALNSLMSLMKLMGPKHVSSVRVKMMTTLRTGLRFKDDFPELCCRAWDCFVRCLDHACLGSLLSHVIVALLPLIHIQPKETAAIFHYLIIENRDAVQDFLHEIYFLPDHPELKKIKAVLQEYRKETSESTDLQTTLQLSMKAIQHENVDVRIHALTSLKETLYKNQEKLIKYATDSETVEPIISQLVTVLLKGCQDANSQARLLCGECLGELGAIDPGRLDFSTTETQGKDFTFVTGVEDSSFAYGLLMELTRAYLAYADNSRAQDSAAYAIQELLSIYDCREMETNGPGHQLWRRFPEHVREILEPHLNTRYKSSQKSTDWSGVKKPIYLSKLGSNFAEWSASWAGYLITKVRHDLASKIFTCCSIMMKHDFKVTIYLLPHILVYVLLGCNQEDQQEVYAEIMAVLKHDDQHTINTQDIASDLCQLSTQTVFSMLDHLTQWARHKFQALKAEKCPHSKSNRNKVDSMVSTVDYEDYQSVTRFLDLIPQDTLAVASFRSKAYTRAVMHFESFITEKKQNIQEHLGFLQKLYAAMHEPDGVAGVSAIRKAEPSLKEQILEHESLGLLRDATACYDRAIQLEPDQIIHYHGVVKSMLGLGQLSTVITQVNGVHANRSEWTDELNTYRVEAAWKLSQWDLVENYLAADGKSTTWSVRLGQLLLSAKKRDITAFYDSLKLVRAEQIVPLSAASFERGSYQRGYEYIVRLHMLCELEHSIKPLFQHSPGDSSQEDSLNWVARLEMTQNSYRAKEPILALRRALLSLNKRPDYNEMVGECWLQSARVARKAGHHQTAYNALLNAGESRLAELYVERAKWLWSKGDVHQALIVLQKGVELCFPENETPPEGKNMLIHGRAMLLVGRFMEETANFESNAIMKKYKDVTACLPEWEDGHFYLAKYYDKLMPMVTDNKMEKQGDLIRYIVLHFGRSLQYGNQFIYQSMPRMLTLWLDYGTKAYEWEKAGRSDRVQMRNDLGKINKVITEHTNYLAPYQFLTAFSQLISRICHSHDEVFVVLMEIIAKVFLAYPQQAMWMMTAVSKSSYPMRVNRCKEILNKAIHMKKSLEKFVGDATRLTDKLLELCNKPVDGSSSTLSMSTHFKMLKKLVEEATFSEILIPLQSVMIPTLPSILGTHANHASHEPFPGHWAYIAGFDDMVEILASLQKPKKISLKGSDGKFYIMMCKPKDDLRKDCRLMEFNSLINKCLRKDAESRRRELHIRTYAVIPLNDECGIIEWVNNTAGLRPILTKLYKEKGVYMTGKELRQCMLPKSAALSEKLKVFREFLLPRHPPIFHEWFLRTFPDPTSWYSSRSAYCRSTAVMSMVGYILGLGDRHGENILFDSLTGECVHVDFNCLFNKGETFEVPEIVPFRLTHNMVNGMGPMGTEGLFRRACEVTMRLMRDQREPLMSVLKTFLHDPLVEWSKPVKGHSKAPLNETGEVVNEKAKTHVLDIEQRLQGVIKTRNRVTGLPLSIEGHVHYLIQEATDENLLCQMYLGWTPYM

[5] = biological target: Rho-associated protein kinase 1 (Homo sapiens) (UniProt Q13464); test: Inhibition of ROCK1 in human Huh-7 cells at 1 uM by KiNativ Profiling analysis relative to control; format: cell-based
Rho-associated protein kinase 1 (Homo sapiens), sequence (Q13464 2-1354 limits assumed): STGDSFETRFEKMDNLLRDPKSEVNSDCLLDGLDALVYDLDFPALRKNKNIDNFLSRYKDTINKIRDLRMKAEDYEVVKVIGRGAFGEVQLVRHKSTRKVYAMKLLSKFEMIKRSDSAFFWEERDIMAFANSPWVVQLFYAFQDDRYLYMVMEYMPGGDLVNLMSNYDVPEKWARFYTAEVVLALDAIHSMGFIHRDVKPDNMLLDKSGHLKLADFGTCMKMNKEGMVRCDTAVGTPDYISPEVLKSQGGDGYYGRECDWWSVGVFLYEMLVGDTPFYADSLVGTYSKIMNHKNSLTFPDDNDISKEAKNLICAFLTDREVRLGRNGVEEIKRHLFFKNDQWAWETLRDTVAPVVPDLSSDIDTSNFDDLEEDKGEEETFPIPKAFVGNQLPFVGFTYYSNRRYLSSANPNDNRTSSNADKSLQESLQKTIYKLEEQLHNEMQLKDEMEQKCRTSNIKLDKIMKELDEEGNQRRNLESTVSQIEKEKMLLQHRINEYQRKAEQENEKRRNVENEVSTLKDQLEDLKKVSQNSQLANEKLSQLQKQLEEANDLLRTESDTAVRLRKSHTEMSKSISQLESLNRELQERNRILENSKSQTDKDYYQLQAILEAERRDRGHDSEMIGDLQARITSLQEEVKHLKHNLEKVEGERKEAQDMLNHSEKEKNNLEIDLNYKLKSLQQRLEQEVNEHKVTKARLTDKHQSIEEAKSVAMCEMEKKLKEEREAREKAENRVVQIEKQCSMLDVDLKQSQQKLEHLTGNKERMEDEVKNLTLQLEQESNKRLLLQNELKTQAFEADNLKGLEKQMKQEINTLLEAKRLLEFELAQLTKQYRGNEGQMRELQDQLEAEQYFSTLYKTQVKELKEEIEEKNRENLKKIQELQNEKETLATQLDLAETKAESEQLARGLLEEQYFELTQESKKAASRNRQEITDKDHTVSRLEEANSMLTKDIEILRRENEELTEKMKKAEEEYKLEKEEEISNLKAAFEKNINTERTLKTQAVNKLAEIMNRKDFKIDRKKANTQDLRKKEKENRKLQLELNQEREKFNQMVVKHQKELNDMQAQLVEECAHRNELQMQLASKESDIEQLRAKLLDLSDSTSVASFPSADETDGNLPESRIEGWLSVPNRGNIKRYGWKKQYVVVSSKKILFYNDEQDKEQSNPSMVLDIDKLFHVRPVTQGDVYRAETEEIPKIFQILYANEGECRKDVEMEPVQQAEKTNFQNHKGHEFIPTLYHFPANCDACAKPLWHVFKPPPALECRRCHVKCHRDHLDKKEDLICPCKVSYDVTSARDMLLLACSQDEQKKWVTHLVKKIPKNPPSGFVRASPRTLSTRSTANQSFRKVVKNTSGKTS

[6] = biological target: Serine/threonine-protein kinase PLK1 (Homo sapiens) (UniProt P53350); test: Inhibition of PLK1 Lys2 labeling site in human A-375 cells at 5 uM by KiNativ Profiling analysis relative to control; format: cell-based
Serine/threonine-protein kinase PLK1 (Homo sapiens), sequence (P53350 whole entry): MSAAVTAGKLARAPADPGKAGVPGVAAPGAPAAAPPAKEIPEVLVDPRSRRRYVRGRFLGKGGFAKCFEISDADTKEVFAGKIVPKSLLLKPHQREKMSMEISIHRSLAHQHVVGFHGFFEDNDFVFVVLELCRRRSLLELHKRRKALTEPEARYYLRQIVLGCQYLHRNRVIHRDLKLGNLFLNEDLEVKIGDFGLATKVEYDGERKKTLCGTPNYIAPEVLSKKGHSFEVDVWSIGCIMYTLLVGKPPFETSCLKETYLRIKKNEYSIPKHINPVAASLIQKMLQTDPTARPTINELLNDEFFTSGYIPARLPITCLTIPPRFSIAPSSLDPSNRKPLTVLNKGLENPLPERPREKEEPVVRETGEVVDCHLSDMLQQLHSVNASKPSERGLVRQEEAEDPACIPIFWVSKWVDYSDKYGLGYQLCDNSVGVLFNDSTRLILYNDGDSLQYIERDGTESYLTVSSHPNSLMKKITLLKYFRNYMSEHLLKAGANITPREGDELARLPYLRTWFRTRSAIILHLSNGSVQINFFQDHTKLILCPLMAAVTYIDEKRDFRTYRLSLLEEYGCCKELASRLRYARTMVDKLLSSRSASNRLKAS

[7] = biological target: Cyclin-dependent kinase 14 (Homo sapiens) (UniProt O94921); test: Inhibition of PFTAIRE1 Lys2 labeling site in human A-375 cells at 5 uM by KiNativ Profiling analysis relative to control
[8] = Inhibition of KHS1 Lys2 labeling site in human A-375 cells at 5 uM by KiNativ Profiling analysis relative to control; conditions: condition cancer
[9] = biological target: Serine/threonine-protein kinase 4 (Homo sapiens) (UniProt Q13043); test: Inhibition of MST1 Lys1 labeling site harbouring AIHKETGQIVAIKQVPVESDLQEIIK in human A-375 cells at 0.05 uM by KiNativ Profiling analysis relative to control
Serine/threonine-protein kinase 4 (Homo sapiens), sequence (Q13043 whole entry, looked up): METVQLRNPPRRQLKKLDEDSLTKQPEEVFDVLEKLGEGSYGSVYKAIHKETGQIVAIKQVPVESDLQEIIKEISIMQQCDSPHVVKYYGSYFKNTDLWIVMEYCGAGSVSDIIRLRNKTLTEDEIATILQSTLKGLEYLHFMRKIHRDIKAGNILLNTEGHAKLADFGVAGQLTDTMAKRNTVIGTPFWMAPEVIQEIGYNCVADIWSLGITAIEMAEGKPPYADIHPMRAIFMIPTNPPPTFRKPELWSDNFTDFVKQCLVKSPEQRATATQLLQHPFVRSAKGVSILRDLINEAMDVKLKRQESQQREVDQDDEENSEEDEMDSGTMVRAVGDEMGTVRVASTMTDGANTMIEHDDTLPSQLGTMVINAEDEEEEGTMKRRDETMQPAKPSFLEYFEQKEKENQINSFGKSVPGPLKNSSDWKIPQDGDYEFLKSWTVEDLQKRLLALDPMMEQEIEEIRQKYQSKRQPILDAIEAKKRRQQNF

[10] = system: Leucine-rich repeat serine/threonine-protein kinase 2 (Homo sapiens), Q5S007 [G2019S]; test: Inhibition of LRRK2 G2019S mutant (unknown origin) at 1 uM by Ambit Kinomescan binding assay relative to control; values are per cent of control
[11] = biological target: T2, Mitogen-activated protein kinase kinase kinase 5 (Homo sapiens) (UniProt Q99683); test: Inhibition of ASK1 (unknown origin) at 1 uM by Ambit Kinomescan binding assay relative to control
T2 sequence (whole entry): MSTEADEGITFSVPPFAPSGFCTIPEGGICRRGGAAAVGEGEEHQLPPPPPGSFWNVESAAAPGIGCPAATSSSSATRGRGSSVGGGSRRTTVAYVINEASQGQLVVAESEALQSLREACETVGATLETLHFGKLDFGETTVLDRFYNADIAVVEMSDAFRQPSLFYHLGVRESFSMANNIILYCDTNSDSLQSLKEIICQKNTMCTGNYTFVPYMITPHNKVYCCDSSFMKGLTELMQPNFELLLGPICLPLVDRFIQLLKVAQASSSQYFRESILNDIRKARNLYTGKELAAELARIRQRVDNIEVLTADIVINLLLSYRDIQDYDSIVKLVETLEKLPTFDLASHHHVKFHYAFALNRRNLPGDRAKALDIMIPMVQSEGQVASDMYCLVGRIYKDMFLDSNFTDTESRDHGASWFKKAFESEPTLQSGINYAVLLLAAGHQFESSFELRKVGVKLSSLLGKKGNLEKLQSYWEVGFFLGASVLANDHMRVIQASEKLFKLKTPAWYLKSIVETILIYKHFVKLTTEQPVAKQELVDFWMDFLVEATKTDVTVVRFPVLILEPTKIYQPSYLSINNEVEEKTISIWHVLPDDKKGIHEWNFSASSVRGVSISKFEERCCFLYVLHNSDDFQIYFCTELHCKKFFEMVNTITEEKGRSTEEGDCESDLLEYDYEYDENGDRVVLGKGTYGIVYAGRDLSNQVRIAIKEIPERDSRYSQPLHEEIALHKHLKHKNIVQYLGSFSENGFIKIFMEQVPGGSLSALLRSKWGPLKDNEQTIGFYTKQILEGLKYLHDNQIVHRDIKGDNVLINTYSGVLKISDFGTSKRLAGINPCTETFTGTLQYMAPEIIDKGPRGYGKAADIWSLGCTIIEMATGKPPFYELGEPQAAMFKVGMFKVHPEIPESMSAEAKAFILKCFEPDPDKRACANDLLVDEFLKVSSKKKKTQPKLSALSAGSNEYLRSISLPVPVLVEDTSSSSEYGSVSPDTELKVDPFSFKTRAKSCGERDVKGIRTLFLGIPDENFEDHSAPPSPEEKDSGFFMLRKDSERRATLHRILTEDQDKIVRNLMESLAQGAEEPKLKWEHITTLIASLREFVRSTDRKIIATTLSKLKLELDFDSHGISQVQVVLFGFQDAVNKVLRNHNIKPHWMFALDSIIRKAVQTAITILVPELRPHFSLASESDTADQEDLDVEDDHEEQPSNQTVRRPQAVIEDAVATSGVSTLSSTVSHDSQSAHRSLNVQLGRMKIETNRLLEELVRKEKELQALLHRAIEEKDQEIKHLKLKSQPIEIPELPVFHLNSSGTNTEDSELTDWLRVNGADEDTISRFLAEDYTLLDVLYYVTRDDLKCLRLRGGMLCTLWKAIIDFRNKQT

CNc1cc(Oc2cc(C(=O)Nc3cc(N4CCN(C)CC4)cc(C(F)(F)F)c3)ccc2C)ncn1
inhibition [1]: 22.5%

CCN1CCN(Cc2ccc(NC(=O)c3ccc(C)c(Oc4ccnc5[nH]ccc45)c3)cc2C(F)(F)F)CC1
inhibition [2]: -6.4% | inhibition [3]: 85.6% | inhibition [4]: -2.8% | inhibition [5]: -5.5% | inhibition [6]: 17.6% | inhibition [7]: 77.8% | inhibition at 5 µM [8]: 42.8%

CCN1CCN(Cc2ccc(NC(=O)c3ccc(C)c(/C=C/c4cnc5[nH]ccc5c4OC)c3)cc2C(F)(F)F)CC1
inhibition [9]: 0.6% | residual activity [10]: 71% | inhibition [11]: 100%
